In ChEMBL document CHEMBL4831557, “Parthenolide Derivatives as PKM2 Activators Showing Potential in Colorectal Cancer” (J Med Chem, 2021):
The source made the active and inactive calls. The rule behind the calls is not given here.

Experiments:
Pyruvate kinase PKM [1] = molecular target: T1, Pyruvate kinase PKM (Homo sapiens, UniProt P14618); experiment: Inhibition of PKM2/STAT3 in human HT-29 cells assessed as increase in bax protein expression at 0.45 to 1.8 uM incubated for 48 hrs by Western blot analysis; type: cell-based; details: dose 0.45-1.8 µM
SW480 [2] = experiment: Cytotoxicity against human SW480 cells assessed as reduction in cell viability incubated for 48 hrs by MTT assay; type: functional, cell-based; details: SW480, 48 h
SW480 [3] = experiment: Antiproliferative activity against human SW480 cells at 0.1 to 0.4 uM measured after 48 hrs by EdU staining based confocal microscopic analysis; type: functional, cell-based; details: dose 0.1-0.4 µM
[4] = Selectivity index, ratio of IC50 for human NCM460 cells to IC50 for human HT-29 cells; type: toxicity; details: NCM460 cells versus HT-29 cells, read-out: Ratio IC50
[5] = Toxicity in BALB/c mouse xenografted with human HT-29 cells assessed as decrease in body weight at 30 mg/kg, ip administered once every 2 days for 2 weeks and monitered every 2 days; type: organism-based; details: in vivo, 336 h
Pyruvate kinase PKM [6] = molecular target: Pyruvate kinase PKM (Homo sapiens, UniProt P14618, C424A); experiment: Activation of human PKM2-C424A expressed in Escherichia coli BL21 (DE3)
Pyruvate kinase PKM [7] = molecular target: T1, Pyruvate kinase PKM; experiment: Activation of human PKM2-C424A expressed in Escherichia coli BL21 (DE3) assessed as increase in PKM2-C424A tetramer formation by chemical cross-linking assay
HT-29 [8] = experiment: Cytotoxicity against human HT-29 cells assessed as reduction in cell viability incubated for 48 hrs by MTT assay; type: functional, cell-based; details: HT-29, 48 h
Pyruvate kinase PKM [9] = molecular target: T1, Pyruvate kinase PKM; experiment: Activation of PKM2 in human HT-29 cells assessed as increase in PKM2 tetramer formation at 0.6 to 1.2 uM after 48 hrs by Western blot analysis; type: cell-based; details: filed as activator, dose 0.6-1.2 µM
[10] = Selectivity index, ratio of IC50 for human NCM460 cells to IC50 for human SW480 cells
HT-29 [11] = experiment: Antiproliferative activity against human HT-29 cells at 0.25 to 1 uM measured after 48 hrs by EdU staining based confocal microscopic analysis; type: functional, cell-based; details: dose 0.25-1 µM

T1 sequence (P14618 2-531 limits assumed): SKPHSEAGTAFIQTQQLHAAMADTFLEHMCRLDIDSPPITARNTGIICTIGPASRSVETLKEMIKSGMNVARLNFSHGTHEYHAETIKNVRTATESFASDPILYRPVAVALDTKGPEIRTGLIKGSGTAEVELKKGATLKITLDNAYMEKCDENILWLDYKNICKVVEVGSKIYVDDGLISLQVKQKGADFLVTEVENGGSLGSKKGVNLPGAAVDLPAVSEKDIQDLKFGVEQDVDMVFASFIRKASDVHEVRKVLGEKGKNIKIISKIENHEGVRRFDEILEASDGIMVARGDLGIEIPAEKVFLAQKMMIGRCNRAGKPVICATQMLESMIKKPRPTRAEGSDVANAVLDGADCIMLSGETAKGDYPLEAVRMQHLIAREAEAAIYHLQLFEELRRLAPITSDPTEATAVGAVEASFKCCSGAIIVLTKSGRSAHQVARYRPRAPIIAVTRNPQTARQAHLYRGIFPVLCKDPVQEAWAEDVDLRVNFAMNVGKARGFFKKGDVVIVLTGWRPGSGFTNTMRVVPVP
Chain of Pyruvate kinase PKM (Homo sapiens, UniProt P14618, C424A) (P14618 2-531 C424A limits assumed): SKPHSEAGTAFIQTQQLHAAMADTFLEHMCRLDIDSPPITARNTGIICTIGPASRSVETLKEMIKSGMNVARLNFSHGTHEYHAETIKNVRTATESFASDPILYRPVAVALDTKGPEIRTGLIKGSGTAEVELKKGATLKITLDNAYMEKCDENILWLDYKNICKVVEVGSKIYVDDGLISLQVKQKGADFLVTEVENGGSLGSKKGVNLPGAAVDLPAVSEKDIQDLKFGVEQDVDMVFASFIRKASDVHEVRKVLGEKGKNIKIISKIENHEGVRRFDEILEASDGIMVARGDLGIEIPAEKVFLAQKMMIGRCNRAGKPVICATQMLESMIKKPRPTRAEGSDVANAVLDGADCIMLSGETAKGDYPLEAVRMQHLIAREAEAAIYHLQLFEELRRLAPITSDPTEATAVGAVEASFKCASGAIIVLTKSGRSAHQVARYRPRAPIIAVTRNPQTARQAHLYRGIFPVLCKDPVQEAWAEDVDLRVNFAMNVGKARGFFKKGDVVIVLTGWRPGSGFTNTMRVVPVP

C=C1C(=O)O[C@H]2[C@H]1CC/C(COC(=O)c1ccc3nccc(Br)c3c1)=C/CC[C@@]1(C)O[C@@H]21
inhibition (Pyruvate kinase PKM [1]): Active
IC50 (SW480 [2]): 0.22 µM
Activity (SW480 [3]): Active
selectivity ratio [4]: 3.06
Activity [5]: Non-Toxic
AC50 (Pyruvate kinase PKM [6]): 0.1 µM
Activity (Pyruvate kinase PKM [7]): inactive
IC50 (HT-29 [8]): 0.66 µM
Activity (Pyruvate kinase PKM [9]): Active
Ratio IC50 [10]: 9.18
Activity (HT-29 [11]): Active
